This note sets out measurements from ChEMBL document CHEMBL5236610, “A Comprehensive Overview of Small-Molecule Androgen Receptor Degraders: Recent Progress and Future Perspectives” (J Med Chem, 2022).

SMILES strings stand for the structures.

Series [1] deals with T1, Androgen receptor (Homo sapiens, UniProt P10275).
T1 sequence (P10275 whole entry): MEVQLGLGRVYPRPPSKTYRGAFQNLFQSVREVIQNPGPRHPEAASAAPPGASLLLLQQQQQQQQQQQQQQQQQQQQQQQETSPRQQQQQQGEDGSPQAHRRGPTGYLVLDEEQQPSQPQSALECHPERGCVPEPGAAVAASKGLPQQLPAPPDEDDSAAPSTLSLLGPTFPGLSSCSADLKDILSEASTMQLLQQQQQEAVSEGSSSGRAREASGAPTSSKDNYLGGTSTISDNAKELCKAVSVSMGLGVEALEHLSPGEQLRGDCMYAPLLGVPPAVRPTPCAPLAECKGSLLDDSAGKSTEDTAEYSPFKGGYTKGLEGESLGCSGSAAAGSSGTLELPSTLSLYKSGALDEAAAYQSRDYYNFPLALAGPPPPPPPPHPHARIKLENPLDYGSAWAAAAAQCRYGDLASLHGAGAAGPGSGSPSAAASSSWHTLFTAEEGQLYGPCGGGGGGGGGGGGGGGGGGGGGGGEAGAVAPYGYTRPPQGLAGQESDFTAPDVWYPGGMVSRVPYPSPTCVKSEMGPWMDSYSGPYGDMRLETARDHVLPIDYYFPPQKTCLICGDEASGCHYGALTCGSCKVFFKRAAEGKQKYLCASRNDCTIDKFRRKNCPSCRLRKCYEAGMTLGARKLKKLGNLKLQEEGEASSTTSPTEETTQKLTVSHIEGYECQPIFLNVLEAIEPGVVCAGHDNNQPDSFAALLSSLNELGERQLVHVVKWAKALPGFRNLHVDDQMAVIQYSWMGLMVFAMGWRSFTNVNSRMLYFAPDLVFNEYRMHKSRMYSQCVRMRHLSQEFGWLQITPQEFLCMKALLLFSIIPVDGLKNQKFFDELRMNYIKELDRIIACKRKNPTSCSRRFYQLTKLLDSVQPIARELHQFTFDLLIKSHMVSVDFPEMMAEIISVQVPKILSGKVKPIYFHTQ
The series can be described thus: Inhibition of Androgen receptor (unknown origin).

For series [2], the system named is LNCaP. The series can be described thus: Antitumor activity against human LNCaP cells xenografted in nude mouse assessed as decrease in tumor weight at 40 mg/kg via oral gavage for six days weekly for 70 days relative to control. The series is classed as functional. Also on record: scale not given: the % may be the effect or the level left. Particulars: time 70 day. In general terms: A xenograft is tissue or cells of one species grown in another, often human tumour cells in immunodeficient mice.

In series [3] the test system is LNCaP. Description: Antitumor activity against human LNCap cells xenografted in NSG mouse assessed as tumor growth inhibition at 100 mg/kg, sc relative to control. The series is classed as functional. Particulars: read-out: TGI.
A short description of the next series: in vitro. Particulars: mouse, liver microsomes.
Series [4] deals with T2, von Hippel-Lindau disease tumor suppressor/Androgen receptor (Homo sapiens, UniProt P10275+P40337). The series can be described thus: PROTAC activity at VHL/AR-V7 in human 22Rv1 cells assessed as induction of AR-V7 degradation incubated for 24 hrs by immunoblot assay. It counts as cell-based. A general note: Immunoblotting shows a protein as a band on a membrane.
Target sequence in this assay (P40337 whole entry, looked up, change not shown, one chain of several): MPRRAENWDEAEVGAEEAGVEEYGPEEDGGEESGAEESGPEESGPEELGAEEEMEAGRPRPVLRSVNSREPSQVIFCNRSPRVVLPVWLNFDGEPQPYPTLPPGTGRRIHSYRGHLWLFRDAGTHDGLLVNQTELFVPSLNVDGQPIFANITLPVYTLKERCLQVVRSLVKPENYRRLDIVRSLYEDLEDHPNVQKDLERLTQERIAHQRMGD
Series [5] deals with T2, von Hippel-Lindau disease tumor suppressor/Androgen receptor. Description: PROTAC activity at VHL/full length AR in human 22Rv1 cells assessed as induction of AR degradation incubated for 24 hrs by immunoblot assay. It counts as cell-based.
Target sequence in this assay (P40337 whole entry, one chain of several): as the sequence (P40337 whole entry, looked up, change not shown, one chain of several) above
In series [6] the target is T1, Androgen receptor. The series can be described thus: Induction of degradation of AR LBD in human LNCaP cells. It counts as cell-based.
For series [7], the target named is T1, Androgen receptor. The series can be described thus: Inhibition of AR LBD in human LNCaP cells. The series is classed as cell-based.
Series [8] in a line: Downregulation of AR level in human LNCaP cells at 10 uM by Western blot analysis relative to control. It counts as functional.
Series [9] can be described thus: Downregulation of AR level in human CWR22Rv cells at 10 uM by Western blot analysis relative to control. It counts as functional.
Series [10] in a line: Downregulation of AR-Vs level in human LNCaP cells at 10 uM by Western blot analysis relative to control. It counts as functional.
A short description of series [11]: Downregulation of AR-Vs level in human CWR22Rv cells at 10 uM by Western blot analysis relative to control. It counts as functional.
Series [12] is described as follows: Antitumor activity in human CWR22rv cells xenografted NOD.CB17-PrkdcSCID/J mouse model assessed as inhibition of tumor growth at 10 mg/kg, ip relative to control. The series is classed as functional. Also on record: scale not given: the % may be the effect or the level left.
Series [13] concerns LNCaP. The series can be described thus: Antiproliferative activity against human LNCap cells incubated for 168 hrs by […] assay. The series is classed as functional, cell-based.
The subject of another series is VCaP. Description: Antiproliferative activity against human VCaP cells incubated for 168 hrs by […] assay. It counts as functional, cell-based.
In series [14] the test system is LNCaP. The series can be described thus: Antiproliferative activity against human LNCAP cells assessed as reduction in cell viability. It counts as functional, cell-based.
Series [15] concerns CWR22R. The series can be described thus: Antiproliferative activity against human 22Rv1 cells assessed as reduction in cell viability. The series is classed as functional, cell-based.
In series [16] the target is Protein cereblon/Androgen receptor (Homo sapiens, UniProt P10275+Q96SW2). Description: Protac activity at CRBN/Androgen receptor in human LNCaP cells assessed as Androgen receptor degradation incubated for 24 hrs. The series is classed as cell-based.
Protein cereblon/Androgen receptor, sequence (Q96SW2 whole entry, one chain of several): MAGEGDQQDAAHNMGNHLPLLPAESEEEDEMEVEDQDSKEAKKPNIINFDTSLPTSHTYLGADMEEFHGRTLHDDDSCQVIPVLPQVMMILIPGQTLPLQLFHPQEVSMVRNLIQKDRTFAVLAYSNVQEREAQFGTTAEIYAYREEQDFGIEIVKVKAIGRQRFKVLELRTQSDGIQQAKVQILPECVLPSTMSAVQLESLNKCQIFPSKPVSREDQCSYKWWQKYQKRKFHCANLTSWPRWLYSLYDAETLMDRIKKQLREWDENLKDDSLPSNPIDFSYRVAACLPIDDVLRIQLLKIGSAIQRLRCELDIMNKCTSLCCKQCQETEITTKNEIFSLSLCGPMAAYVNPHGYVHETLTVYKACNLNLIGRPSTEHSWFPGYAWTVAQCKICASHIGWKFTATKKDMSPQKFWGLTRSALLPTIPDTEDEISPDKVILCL
The test system of series [17] is CWR22R. The series can be described thus: Antitumor activity against human 22Rv1 cells xenografted in BALB/c nude mouse assessed as reduction in tumor volume at 10 mg/kg administered daily by vernier caliper method relative control. More on the design: scale not given: the % may be the effect or the level left. The series is classed as functional.
The subject of series [18] is LNCaP C4-2B. Description: Antiproliferative activity against human C4-2B cells. It counts as functional, cell-based.
Series [19] concerns PC-3. Description: Antitumor activity against human PC-3 cells xenografted in mouse assessed as reduction in tumor at 50 mg/kg in presence of bicalutamide relative to control. Also on record: scale not given: the % may be the effect or the level left. It counts as functional.
Series [20] has as its system LNCaP. Description: Antiproliferative activity against human LNCap cells. It counts as functional, cell-based.
Series [21] relates to CWR22R. Description: Antiproliferative activity against human 22Rv1 cells. It counts as functional, cell-based.
In series [22] the test system is LNCaP C4-2B. Description: Antiproliferative activity against human LNCaP C4-2B cells. The series is classed as functional, cell-based.
In series [23] the test system is PC-3. The series can be described thus: Antiproliferative activity against human PC-3 cells. The series is classed as functional, cell-based.
In series [24] the test system is CWR22R. The series can be described thus: Antitumor activity against human 22rv1 cells xenografted in mouse assessed as suppression of tumor growth at 100 mg/kg, po administered daily for 25 days relative to control. It counts as functional. Particulars: time 25 day.
In series [25] the target is T3, Steroid 17-alpha-hydroxylase/17,20 lyase (Homo sapiens, UniProt P05093).
T3 sequence (P05093 whole entry): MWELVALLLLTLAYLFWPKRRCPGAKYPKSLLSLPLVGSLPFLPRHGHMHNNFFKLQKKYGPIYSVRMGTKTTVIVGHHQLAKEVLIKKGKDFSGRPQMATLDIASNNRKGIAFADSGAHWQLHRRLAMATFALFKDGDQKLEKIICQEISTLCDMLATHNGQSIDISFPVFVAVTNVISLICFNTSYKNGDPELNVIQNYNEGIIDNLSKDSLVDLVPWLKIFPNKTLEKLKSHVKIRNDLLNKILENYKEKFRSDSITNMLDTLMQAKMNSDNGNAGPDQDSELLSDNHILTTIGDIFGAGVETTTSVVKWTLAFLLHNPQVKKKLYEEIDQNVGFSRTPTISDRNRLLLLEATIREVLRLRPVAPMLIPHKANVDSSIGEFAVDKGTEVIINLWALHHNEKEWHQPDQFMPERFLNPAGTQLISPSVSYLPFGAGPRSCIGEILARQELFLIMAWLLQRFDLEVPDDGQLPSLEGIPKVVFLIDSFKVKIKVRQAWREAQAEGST
The series can be described thus: Inhibition of CYP17AI in human LNCaP cells. It counts as ADME, cell-based.

Series [26] addresses T3, Steroid 17-alpha-hydroxylase/17,20 lyase. Description: Inhibition of CYP17AI in human 22Rv1 cells. The series is classed as ADME, cell-based.
The test system of series [27] is CWR22R. The series can be described thus: Antiproliferative activity against human 22Rv1 cells incubated for 24 hrs by CCK-8 assay. The series is classed as functional, cell-based. Particulars: 22Rv1, 24 h.
The subject of another series is LNCaP C4-2. The series can be described thus: Antiproliferative activity against human C4-2 cells incubated for 24 hrs by CCK-8 assay. The series is classed as functional, cell-based. Particulars: LNCaP C4-2, 24 h.
Another series relates to DU-145. Description: Antiproliferative activity against human DU-145 cells incubated for 24 hrs by CCK-8 assay. Particulars: DU-145, 24 h. The series is classed as functional, cell-based. (In general: Tetrazolium assays rely on reduction of a dye to a coloured formazan, in cell work by metabolically active cells.)
The test system of series [28] is PC-3. The series can be described thus: Antiproliferative activity against human PC-3 cells incubated for 24 hrs by CCK-8 assay. The series is classed as functional, cell-based. Particulars: PC-3, 24 h.

Description for in vitro: Metabolic stability in mouse liver microsomes assessed as half life by LC-MS/MS analysis

For the molecule `Clc1ccc(-c2cnc3n2CCC3)cc1`, the IC50 (commonly the concentration that gives 50% inhibition) at Androgen receptor [1] was determined as 4.3 µM.
For the molecule `CC(C)=CCC[C@](C)(O)[C@H]1CC[C@]2(C)[C@@H]1[C@H](O)C[C@@H]1[C@@]3(C)CC[C@H](O)C(C)(C)[C@@H]3CC[C@]12C`, the Activity with LNCaP [2] is 32.6%.
Take `C[C@](O)(Cn1ccc2cc(F)ccc21)C(=O)Nc1ccc(C#N)c(C(F)(F)F)c1`: the inhibition in vivo at 100 mg/kg in the series with LNCaP [3] amounted to 65%.
For `CN(C[C@](C)(O)C(=O)Nc1ccc(C#N)c(C(F)(F)F)c1)c1ccc(C#N)c(-c2ccccc2)c1`, the half-life – broadly, the time in which the quantity being followed falls by half – in the series “in vitro” was determined as 1 min.
As to `Cc1ncsc1-c1ccc([C@H](C)NC(=O)[C@@H]2C[C@@H](O)CN2C(=O)[C@@H](NC(=O)CCCCNC(=O)COc2c(-c3csc(N4CCOCC4)n3)ccc(F)c2F)C(C)(C)C)cc1`, the EC50 (as a rule, the midpoint of the concentration-response curve) in [4] is 0.37 µM; in series [5], 2 µM.
Molecule `CC1(C)C(=O)N(c2ccc(C#N)c(C(F)(F)F)c2)C(=S)N1CCCC(=O)NCCOCCOC(=O)CC12CC3CC(CC(C3)C1)C2` gave an EC50 on Androgen receptor [6] of 1 µM. This molecule returned an IC50 against Androgen receptor [7] of 0.156 µM.
With `CCOc1ccc2c(c1OC(C)C)CCN(c1ccc(C(=O)Nc3cccc(C)n3)cn1)C2`, the Activity is reported as over 90% in [8]; over 90% in series [9]; over 90% in series [10]; over 90% in series [11]; 65% in series [12].
Turning to `CC1(C)C(=O)N(c2ccc(C#N)c(C(F)(F)F)c2)C(=S)N1CCCCOc1cccc2c1C(=O)N(C1CCC(=O)NC1=O)C2=O` (configuration not stated), the IC50 in the series on LNCaP [13] stood at 3.07 µM; with VCaP, 0.127 µM.
Turning to `CC1(C)CC(NC(=O)[C@H](Cc2ccc(OCc3c(Cl)cccc3Cl)cc2)NC(=O)/C(=C\c2ccccc2)c2ccccc2)CC(C)(C)N1`, the IC50 in the series on LNCaP [14] amounted to 3 µM; with CWR22R [15], 2.6 µM.
For `CC(O)(COc1ccc(OCCOCCOc2cccc3c2C(=O)N(C2CCC(=O)NC2=O)C3=O)cc1)C(=O)Nc1ccc(C#N)c(I)c1` (configuration not stated), in series [16], the EC50 was 5.21 µM.
Regarding `COc1ccc(-n2nc3ccc(NC(=O)CO[N+](=O)[O-])cc3n2)cc1`, the Activity in the series on CWR22R [17] turned out to be 82%.
`COc1ccc(C(=O)n2c(C)cc3cc(Cl)ccc32)cc1` had an IC50 in the series on LNCaP C4-2B [18] of 1.09 µM.
As for `C[C@H]1[C@H](OC(=O)CCC(=O)O)O[C@@H]2O[C@@]3(C)CC[C@H]4[C@H](C)CC[C@@H]1[C@@]24OO3` [ARTESUNATE], the Activity in the series on PC-3 [19] is on record as over 95%.
For `COc1ccc2cc3[n+](cc2c1OC)CCc1cc2c(cc1-3)OCO2` [BERBERINE], the IC50 in the series on LNCaP [20] stood at 3.4 µM; with CWR22R [21], 12.7 µM; in the series on LNCaP C4-2B [22], 11.2 µM; in the series on PC-3 [23], 21.5 µM.
Take `CC(C)c1cc2c(c(O)c1O)[C@@]1(C(=O)O)CCCC(C)(C)[C@@H]1CC2` [CARNOSIC ACID]: in the series on CWR22R [24], the Activity turned out to be 53%.
For `C[C@]12CC[C@H](O)CC1=CC[C@@H]1[C@@H]2CC[C@]2(C)C(n3cnc4ccccc43)=CC[C@@H]12` [GALETERONE], the IC50 in series [25] is 3.55 µM; in series [26], 0.0122 µM.
`COc1ccc(-c2cc(=O)c3c(OC)c(OC)c(OC)c(OC)c3o2)cc1OC` [NOBILETIN]: the IC50 in the series on CWR22R [27] was 36.5 µM; in the series with LNCaP C4-2, 30.3 µM; in the series on DU-145, 144 µM; in the series with PC-3 [28], 123 µM.
